Reference: patent US20240018472A1, “ENHANCEMENT OF EXTRACELLULAR VESICLE PRODUCTION BY LYSOSOME INHIBITOR” (ExoTop Theragnostics Inc., priority 2022, published 2024)
Entries after “also recorded” stand apart in the source; their conditions may differ.

Assays:
[1] = tested on: miR-21; assay: microRNA expression of miR-21, MSC with or without CQ; format: cell-based; details: CQ 50 μM, 48 hours
Description: (§1) Mesenchymal stem cells (MSC) were cultured in complete media until reaching 70% overall cell confluence, and then were further cultured in three different media with or without chloroquine (CQ) at 50 μM for 48 hours: complete media (normal culture media containing serum), αMEM (minimum essential media), and CDPF (chemically defined protein-free media). The cultured cells were analyzed for protein expression of TSG-6 (tumor necrosis factor-inducible gene 6 protein), Gal-3 (β-galactoside-binding lectin-3), and IDO and microRNA expression of miR-21 and miR-222. One-way ANOVA statistics were performed to analyze the data. P-value of greater than 0.05 was considered as not having a significant difference. *** indicates p≤0.001.

[2] = tested on: miR-222; assay: microRNA expression of miR-222 (miR-22 in the source), MSC with or without CQ; format: cell-based; details: CQ 50 μM, 48 hours
Description: as §1

[3] = tested on: SREBF-1 (sterol regulatory element-binding transcription factor-1); assay: qPCR of SREBF-1 gene expression in MSCs with or without CQ; format: cell-based; details: both serum-free media and complete media, 48-hour culture
Description: (§2) Mesenchymal stem cells (MSCs) were subjected to 48-hour culture in either complete media or serum-free media, followed by treatment with or without CQ to investigate alterations in cellular morphology. In addition, the gene expression levels of FASN (fatty acid synthase, a pivotal lipogenic enzyme) and SREBF-1(sterol regulatory element-binding transcription factor-1), two key factors involved in lipid metabolism, were assessed by qPCR.

[4] = tested on: Mesenchymal stem cells (MSCs); assay: Cellular morphology of MSCs after 48-hour culture with or without CQ; format: cell-based; details: CQ in serum-free media compared to complete media
Description: as §2

[5] = tested on: human CD63 (hCD63) gene
Description: Mesenchymal stem cells were seeded on the plate at a density of 5000 cells/cm^2 and the plate was placed in a 5% CO2 humidified incubator. One day after the incubation, the culture media was aspirated to remove non-adherent cells and switched to a fresh media. The plate was incubated again. After further culturing for around 3 to 5 days, the culture media was aspirated and replaced by CDPF and/or lysosome inhibitor medium. The cells were cultured in the CDPF and/or lysosome inhibitor medium for 12, 24, or 48 hours. After the designated period of culturing, the culture media was collected and cell lysis buffer was immediately added to the cells on the plate. The collected media and cell lysate were each independently subjected to detection of the level of CD63 by ELISA and by qPCR, respectively.
To compare hCD63+ expression in MSCs cultured in various media including CCM, CDPF, and CDPF with lysosome inhibitor, RT-quantitative real-time PCR (RT-qPCR) assays were performed.

[6] = tested on: human MSCs; assay: Intracellular acidification of MSCs, lysotracker red staining of acidic organelles; format: cell-based; details: MSCs cultured in CDPF with lysosome inhibitor vs CCM and CDPF
Description: The plate was incubated again.
Human MSCs were cultured in different media including complete culture medium (CCM), CDPF, and CDPF with lysosome inhibitor. The acidic organelles in live stem cells were stained by lysotracker red.

[7] = tested on: CD63; assay: CD63 ELISA of culture media, secretion of EVs (CD63+ particles) from stem cells; format: cell-based, human
Description: (§6) Mesenchymal stem cells were seeded on the plate at a density of ˜5000 cells/cm^2 and the plate was placed in a 5% CO2 humidified incubator. One day after the incubation, the culture media was aspirated to remove non-adherent cells and switched to a fresh media. The plate was incubated again. After further culturing for around 3 to 5 days, the culture media was aspirated and replaced by CDPF and/or lysosome inhibitor medium. The cells were cultured in the CDPF and/or lysosome inhibitor medium for 12, 24, or 48 hours. After the designated period of culturing, the culture media was collected and cell lysis buffer was immediately added to the cells on the plate. The collected media and cell lysate were each independently subjected to detection of the level of CD63 by ELISA and by qPCR, respectively.
(§7) To quantitatively compare CD63+ expression in CM cultured in various media including CCM, CDPF, and CDPF with lysosome inhibitor, enzyme-linked immunosorbent (ELISA) assays were performed.

[8] = tested on: CD81; assay: qPCR of CD81 gene expression in MSCs with or without CQ; format: cell-based; details: all media conditions (complete, αMEM, CDPF); CQ 50 μM, 48 hours; listed as CQ
Description: (§3) Mesenchymal stem cells (MSC) were cultured in complete media until reaching 70% overall cell confluence, and then were further cultured in three different media with or without chloroquine (CQ) at 50 μM for 48 hours: complete media (normal culture media containing serum), αMEM (minimum essential media), and CDPF (chemically defined protein-free media). The cell-cultured media were collected, filtered through a 0.2 μm filter, and assessed by CD63 ELISA to quantify the amount of CD63, a protein marker associated with small-sized EVs (FIG. 5A).
(§4) To further examine whether the upregulation of CD63 protein is a result of cytosolic secretion or heightened expression at the gene level, an analysis of alterations in the gene expression levels of extracellular vesicle-specific components in both complete and serum-free media was performed. The cultured cells were collected to perform qPCR analysis to detect three well-established EV markers: CD09, CD63, and CD81 (FIGS. 5B, 5C, and 5D).
(§5) One-way ANOVA statistics were performed to analyze the data. In some cases, CD63 is a marker associated with small-sized EVs. In some cases, CD81 is a marker associated with EVs generally. P-value of greater than 0.05 was considered as not having a significant difference. *** indicates p≤0.001.

[9] = tested on: FASN (fatty acid synthase); assay: qPCR of FASN gene expression in MSCs with or without CQ; format: cell-based; details: both serum-free media and complete media, 48-hour culture
Description: as §2

[10] = tested on: Gal-3 (β-galactoside-binding lectin-3); assay: Protein expression of Gal-3, MSC with or without CQ; format: cell-based; details: both αMEM media and CDPF media; CQ 50 μM, 48 hours
Description: as §1

[11] = tested on: TSG-6 (tumor necrosis factor-inducible gene 6 protein); assay: Protein expression of TSG-6, MSC with or without CQ; format: cell-based; details: regardless of the culture condition; CQ 50 μM, 48 hours
Description: as §1

[12] = tested on: CD63; assay: CD63 ELISA of cell-cultured media, MSC with or without CQ in three media; format: cell-based; details: for CD63 levels (ELISA) vs corresponding medium without CQ: CQ 50 μM, 48 hours
Description: as §3, §5

[13] = tested on: CD63; assay: qPCR of CD63 gene expression in MSCs with or without CQ; format: cell-based; details: CQ 50 μM, 48 hours; for gene expression of CD63 (in words): listed as CQ
Description: as §3, §4, §5

[14] = tested on: fatty acid synthase (FASN); assay: qPCR RQ for fatty acid synthase (FASN) in MSCs in CCM or CDPF with or without lysosome inhibitor; format: cell-based
Description: as §6, §7

[15] = tested on: CD09; assay: qPCR of CD09 gene expression in MSCs with or without CQ; format: cell-based; details: all media conditions; CQ 50 μM, 48 hours
Description: as §3, §4, §5

[16] = tested on: IDO; assay: Protein expression of IDO, MSC with or without CQ; format: cell-based; details: both αMEM media and CDPF media; CQ 50 μM, 48 hours
Description: as §1

[17] = complete media culture condition
[18] = CDPF with lysosome inhibitor vs CDPF, RT-qPCR

`CCN(CC)CCCC(C)Nc1ccnc2cc(Cl)ccc12` (centres unmarked) [chloroquine] was tested, and the “expression of miR-21 (in words)” value [1, 17] was “did not induce an increase”, the “expression of miR-21 (in words)” value ([1]; serum-free conditions) was “increased” and the “expression of miR-22 (in words)” value [2, 17] was “did not induce an increase”. For the same compound, the “expression of miR-22 (in words)” value ([2]; serum-free conditions) was “increased”, the “gene expression of SREBF-1 (in words)” value [3] was “robust upregulation” and the cellular morphology [4] was “notable thinning of spindle-shaped cells and the emergence of numerous lipid body-like structures”. The “expression of hCD63+ gene, fold vs MSCs cultured in CCM” value ([5]; CDPF with lysosome inhibitor vs CCM, RT-qPCR) was “about 10 times”, the “expression of hCD63+ gene, fold vs MSCs cultured in CDPF without lysosome inhibitor” value [5, 18] was “about 5 times” and the “CD63 gene expression in MSCs (in words)” value ([5]; CDPF with lysosome inhibitor, qPCR) was “dramatic increase; also recorded: increased”. For the same compound, the “intracellular acidification of human MSCs” value [6] was “suppresses”, the “secretion of EVs (CD63+ particles) from stem cells to cultured medium (in words)” value ([7]; CDPF with lysosome inhibitor vs CCM and CDPF) was “stimulated” and the “EV productions (CD63 ELISA), fold vs CCM or CDPF without lysosome inhibitor” value ([7]; CDPF with lysosome inhibitor vs CCM or CDPF) was “about 2.3 times”. The “CD81 gene expression (in words)” value [8] was “did not increase significantly; also recorded: remained similar”, the “gene expression of FASN (in words)” value [9] was “robust upregulation” and the “expression level of Gal-3 (in words)” value [10] was “increased”. The “TSG-6 content levels (in words)” value [11] was “did not stimulate an increase”, the “CD63 levels (ELISA) vs corresponding medium without CQ” value ([12]; CDPF+CQ) was “higher” and the “CD63 levels (ELISA) vs corresponding medium without CQ” value ([12]; complete medium+CQ) was “higher”. The “increase in EVs (CD63+) quantity resulting from CQ treatment, serum-free vs complete media” value ([12]; serum-free media (αMEM and CDPF) compared to complete media) was “larger”, the “CD63 levels (ELISA) vs corresponding medium without CQ” value ([12]; αMEM+CQ) was “higher” and the “gene expression of CD63, fold vs corresponding medium without CQ” value ([13]; CDPF+CQ vs CDPF) was “more than 2.5 times”. For the same compound, the “gene expression of CD63 (in words)” value ([13]; complete media) was “no notable changes; also recorded: not seen”, the “gene expression of CD63 (in words)” value ([13]; serum-free media (αMEM, CDPF), p≤0.001) was “significant upregulation; also recorded: large increase” and the “gene expression of CD63, fold vs corresponding medium without CQ” value ([13]; αMEM+CQ vs αMEM) was “more than 2.5 times”. The “expression of FASN, fold vs CCM” value ([14]; CCM with lysosome inhibitor vs CCM, RT-qPCR) was “about 25 times”, the “expression of FASN, fold vs CDPF without lysosome inhibitor” value [14, 18] was “about 5 times” and the “gene expression of FASN (in words)” value ([14]; treatment with lysosome inhibitor, qPCR RQ) was “drastically induced”. The “CD09 expression (in words)” value [15] was “elevated” and the “expression level of IDO (in words)” value [16] was “increased”.
